Measurements as given in the supplement of paper PMC10307832.

What was measured:
Assay in all cases: relative viability (nuclei count vs DMSO), 5 days (fraction); higher = more cells survive
TPCA-1 + OSI-027 = compound: C1=CC(=CC=C1C2=CC(=C(S2)NC(=O)N)C(=O)N)F [TPCA-1] + COc1cccc2cc(-c3nc([C@H]4CC[C@H](C(=O)O)CC4)n4ncnc(N)c34)[nH]c12 [OSI-027] (partner 0.5 µM)
In short: (§1)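 Values are medians from duplicate plates. Each reflects relative viability, defined as the nuclei count of treated wells over that of vehicle wells. Lung cancer cell lines in 1536-well plates were pin-tool dosed one day after seeding with one drug alone or with a fixed anchor-drug dose plus five library-drug doses (not always all listed) in √10 steps, then fixed, stained and imaged at 4× after 5 days.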

[1] = compound: C[C@]12O[C@H](C[C@]1(O)CO)n1c3ccccc3c3c4c(c5c6ccccc6n2c5c31)CNC4=O [Lestaurtinib] + C[C@]1(O)C[C@@H](c2nc(-c3ccc4ccc(-c5ccccc5)nc4c3)c3c(N)nccn32)C1 [Linsitinib] (partner 1 µM)
In short: as §1

[2] = compound: C1/C(=C\C2=CC=CS2)/C(=O)/C(=C/C3=CC=CS3)/C1 + CC1(C)CCC(c2ccc(Cl)cc2)=C(CN2CCN(c3ccc(C(=O)NS(=O)(=O)c4ccc(N[C@H](CCN5CCOCC5)CSc5ccccc5)c(S(=O)(=O)C(F)(F)F)c4)cc3)CC2)C1 [Navitoclax] (partner 0.5 µM)
In short: as §1

[3] = compound: C[C@]12O[C@H](C[C@]1(O)CO)n1c3ccccc3c3c4c(c5c6ccccc6n2c5c31)CNC4=O [Lestaurtinib] + CC(=O)Nc1cccc(-n2c(=O)n(C3CC3)c(=O)c3c(Nc4ccc(I)cc4F)n(C)c(=O)c(C)c32)c1 [Trametinib] (partner 0.02 µM)
In short: as §1

| Cell Line | relative viability (TPCA-1 + OSI-027; first compound 0.04 µM) | relative viability (TPCA-1 + OSI-027; first compound 0.1265 µM) | relative viability (TPCA-1 + OSI-027; first compound 0.4 µM) | relative viability (TPCA-1 + OSI-027; first compound 1.265 µM) | relative viability (TPCA-1 + OSI-027; first compound 4 µM) | relative viability ([1]; first compound 0.005 µM) | relative viability ([1]; first compound 0.01581 µM) | relative viability ([1]; first compound 0.05 µM) | relative viability ([1]; first compound 0.1581 µM) | relative viability ([1]; first compound 0.5 µM) | relative viability ([2]; first compound 0.2 µM) | relative viability ([2]; first compound 0.6325 µM) | relative viability ([2]; first compound 2 µM) | relative viability ([2]; first compound 6.325 µM) | relative viability ([2]; first compound 20 µM) | relative viability ([3]; first compound 0.005 µM) | relative viability ([3]; first compound 0.01581 µM) | relative viability ([3]; first compound 0.05 µM) | relative viability ([3]; first compound 0.5 µM) | relative viability ([3]; first compound 0.1581 µM) |
| --- | --- | --- | --- | --- | --- | --- | --- | --- | --- | --- | --- | --- | --- | --- | --- | --- | --- | --- | --- | --- |
| NCI-H727 | 0.603 | 0.43 | 0.664 | 0.369 | 0.541 | 0.306 | 0.255 | 0.28 | 0.285 | 0.18 | 0.528 | 0.426 | 0.503 | 0.302 | 0.391 | 0.375 | 0.452 | 0.423 | 0.405 | – |
| HARA | 0.811 | 0.454 | 0.627 | 0.355 | 0.131 | 1.02 | 1.09 | 0.648 | 0.453 | 0.198 | 1.1 | 1.15 | 1.13 | 0.497 | 1.11 | 0.639 | 0.832 | 0.685 | 0.268 | 1.09 |
| NCI-H2228 | 0.774 | 0.503 | 0.519 | 0.633 | 0.283 | 0.892 | 0.812 | 0.402 | 0.284 | 0.37 | 0.823 | 1.3 | 0.904 | 0.73 | 1.05 | 0.589 | 0.575 | 0.452 | 0.156 | 0.322 |
| LCLC-97TM1 | 0.584 | 0.323 | 0.486 | 0.411 | 0.283 | 0.2 | 0.172 | 0.153 | 0.135 | 0.113 | 0.345 | 0.337 | 0.367 | 0.297 | 0.261 | – | 0.196 | 0.199 | 0.226 | 0.157 |
| LC-2-ad | 0.971 | 0.753 | 0.813 | 0.744 | 0.407 | 0.824 | 0.819 | 0.372 | 0.323 | 0.157 | 0.451 | 0.451 | 0.399 | 0.406 | 0.49 | 0.932 | 1.02 | 0.792 | 0.505 | 0.569 |
| SK-LU-1 | 0.4 | 0.317 | 0.312 | 0.248 | 0.234 | 0.883 | 0.686 | 0.537 | 0.505 | 0.261 | 0.698 | 0.767 | 0.813 | 0.969 | 0.799 | 0.452 | 0.476 | 0.415 | 0.318 | 0.384 |
| EKVX | 0.806 | 0.671 | 0.771 | 0.626 | 0.586 | 1.03 | 1.13 | 0.949 | 1.08 | 0.552 | 0.999 | 0.87 | 0.916 | 0.912 | 0.919 | 0.507 | – | 0.362 | 0.356 | 0.372 |
| HCC-827 | 0.793 | 0.782 | 0.729 | 0.706 | 0.503 | 0.913 | 0.996 | 0.87 | 0.857 | 0.762 | 1.1 | 0.966 | 1.01 | 0.959 | 1.02 | 0.536 | 0.527 | 0.573 | 0.458 | 0.456 |
| NCI-H650 | 0.533 | 0.498 | 0.617 | 0.286 | 0.374 | 0.79 | 0.915 | 0.503 | 0.455 | 0.179 | – | – | – | – | – | 0.88 | 1.03 | 0.886 | 0.34 | 0.522 |
| CAL-12T | 0.678 | 0.614 | 0.664 | 0.523 | 0.185 | 0.805 | 0.84 | 0.774 | 0.565 | 0.416 | 1.31 | 1.35 | 1.35 | 0.844 | 1.05 | 0.364 | 0.337 | 0.314 | 0.23 | 0.288 |
| NCI-H2342 | 0.566 | 0.537 | 0.536 | 0.555 | 0.514 | – | – | – | – | – | – | – | – | – | – | 0.836 | 0.817 | 0.841 | 0.971 | 0.849 |
| SW 900 | 0.705 | 0.576 | 0.768 | 0.463 | 0.475 | – | – | – | – | – | – | – | – | – | – | 0.959 | 0.86 | 0.691 | 0.876 | 1.16 |
| IA-LM | – | – | – | – | – | 0.459 | 1.02 | 0.927 | 0.792 | 0.553 | 0.938 | 0.925 | 0.88 | 0.565 | 0.704 | – | – | – | – | – |
| EPLC-272H | 0.346 | 0.236 | 0.305 | 0.277 | 0.288 | 1.13 | 1.05 | 0.517 | 0.54 | 0.577 | 1.28 | 0.965 | 1.15 | 1.09 | 0.95 | 0.271 | 0.23 | 0.218 | 0.286 | 0.224 |
| A-427 | 0.528 | 0.359 | 0.546 | 0.332 | 0.195 | 1.17 | 1.12 | 1.01 | 0.631 | 0.658 | 1.03 | 1.02 | 0.982 | 0.852 | 0.92 | 0.783 | 0.807 | 0.729 | 0.203 | 0.344 |
| NCI-H647 | 0.633 | 0.573 | 0.602 | 0.55 | 0.245 | 1.08 | 0.818 | 0.828 | 0.265 | 0.311 | 1.15 | 1.15 | 1.1 | 1.01 | 1.17 | 0.478 | 0.41 | 0.22 | 0.169 | 0.29 |
| NCI-H1975 | 0.836 | 0.737 | 0.676 | 0.633 | 0.295 | 1.09 | 0.967 | 0.717 | 0.537 | 0.302 | 1.09 | 1.19 | 1.04 | 0.912 | 1.08 | 0.344 | 0.33 | 0.348 | 0.209 | 0.262 |
| NCI-H358 | 0.808 | 0.657 | 0.816 | 0.52 | 0.226 | 0.622 | 0.494 | 0.311 | 0.301 | 0.187 | – | – | – | – | – | 0.139 | 0.119 | 0.157 | 0.0891 | 0.103 |
